Paper PMC7215238 (Bioorganic & medicinal chemistry letters, 2020)

Columns and labels:
Type in all cases: cell-based
P.aeruginosa ATCC 27853 = assay: MIC by broth microdilution, P. aeruginosa ATCC 27853; conditions: cation-adjusted Mueller-Hinton broth, CLSI guidelines
E.coli IHMA 940398 = assay: MIC by broth microdilution, E. coli IHMA 940398; conditions: cation-adjusted Mueller-Hinton broth, CLSI guidelines, clinical strain with reduced susceptibility to PMB
E.coli ATCC 25922 = assay: MIC by broth microdilution, E. coli ATCC 25922; conditions: cation-adjusted Mueller-Hinton broth, CLSI guidelines
K.pneumoniae ATCC 4352 = assay: MIC by broth microdilution, K. pneumoniae ATCC 4352; conditions: cation-adjusted Mueller-Hinton broth, CLSI guidelines
P.aeruginosa IHMA 517175 = assay: MIC by broth microdilution, P. aeruginosa IHMA 517175; conditions: cation-adjusted Mueller-Hinton broth, CLSI guidelines, clinical strain with reduced susceptibility to PMB
K.pneumoniae IHMA 652780 = assay: MIC by broth microdilution, K. pneumoniae IHMA 652780; conditions: cation-adjusted Mueller-Hinton broth, CLSI guidelines, clinical strain with reduced susceptibility to PMB
A.baumannii NCTC 13424 = assay: MIC by broth microdilution, A. baumannii NCTC 13424; conditions: cation-adjusted Mueller-Hinton broth, CLSI guidelines
A.baumannii IHMA 863866 = assay: MIC by broth microdilution, A. baumannii IHMA 863866; conditions: cation-adjusted Mueller-Hinton broth, CLSI guidelines, clinical strain with reduced susceptibility to PMB

In the case of Polymyxin B [Compound 1], the “MIC P.aeruginosa ATCC 27853” value (P.aeruginosa ATCC 27853) is reported as 0.5 µg/mL, the “MIC E.coli IHMA 940398” value (E.coli IHMA 940398) is reported as 16 µg/mL and the “MIC E.coli ATCC 25922” value (E.coli ATCC 25922) is reported as 0.25 µg/mL. For the same substance, the “MIC K.pneumoniae ATCC 4352” value (K.pneumoniae ATCC 4352) was 0.125 µg/mL, the “MIC P.aeruginosa IHMA 517175” value (P.aeruginosa IHMA 517175) was 8.0 µg/mL and the “MIC K.pneumoniae IHMA 652780” value (K.pneumoniae IHMA 652780) was 4.0 µg/mL. For the same substance, the “MIC A.baumannii NCTC 13424” value (A.baumannii NCTC 13424) was 0.25 µg/mL and the “MIC A.baumannii IHMA 863866” value (A.baumannii IHMA 863866) was 32 µg/mL.
